Measurements taken from PMC5982655, “Interaction of the New Monofunctional Anticancer Agent Phenanthriplatin With Transporters for Organic Cations” (Frontiers in Chemistry, 2018).
Entries after “also recorded” stand apart in the source; their conditions may differ.

Experiments:
hMATE1 = target: T1, hMATE1 (Homo sapiens, UniProt Q96FL8); assay: Inhibition of ASP+ uptake in HEK 293 cells expressing hMATE1; type: cell-based; conditions: HEK 293 hMATE1, 10 μM ASP+
T1 construct: expressed in transfected cells
T1 sequence (Q96FL8 1-570): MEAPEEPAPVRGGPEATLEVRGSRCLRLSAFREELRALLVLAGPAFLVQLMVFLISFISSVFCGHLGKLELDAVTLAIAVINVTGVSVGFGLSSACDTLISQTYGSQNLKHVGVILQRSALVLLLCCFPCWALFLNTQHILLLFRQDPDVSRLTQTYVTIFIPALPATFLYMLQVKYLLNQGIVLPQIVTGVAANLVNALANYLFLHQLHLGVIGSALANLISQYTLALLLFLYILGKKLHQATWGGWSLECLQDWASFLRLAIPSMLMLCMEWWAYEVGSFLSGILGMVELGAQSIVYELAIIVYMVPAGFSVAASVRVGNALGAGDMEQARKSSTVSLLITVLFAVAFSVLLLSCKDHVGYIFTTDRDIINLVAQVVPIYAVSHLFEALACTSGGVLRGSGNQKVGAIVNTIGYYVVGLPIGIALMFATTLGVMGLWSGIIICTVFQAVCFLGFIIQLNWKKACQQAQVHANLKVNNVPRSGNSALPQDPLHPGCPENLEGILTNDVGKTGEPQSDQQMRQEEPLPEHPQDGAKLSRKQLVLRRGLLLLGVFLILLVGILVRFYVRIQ
Procedure: (§1) The interaction of phenanthriplatin with transporters for organic cations (OCT1-3, MATE1, and MATE2K) was investigated by measuring its effects on the uptake of the fluorescent organic cation 4-(4-dimethylamino)styryl-N-methylpyridinium (ASP^+). Microfluorometric measurements of ASP^+ uptake were performed with a fluorescence plate reader (Infinity 200, Tecan, Crailsheim, Germany; excitation at 465 nm, emission at 590 nm) as described previously for cultured HEK 293 cells (Wilde et al., [2009]). Before measurements, the culture medium in the wells of the 96 well microtiter plate containing HEK 293 cells was replaced by a HCO3- -free Ringer-like solution containing (in mM) NaCl 145, K2HPO4 1.6, KH2PO4 0.4, D-glucose 5, MgCl2 1, calcium gluconate 1.3, and pH adjusted to 7.4. Fluorescence was measured dynamically at 37°C in each well before and after ASP^+ addition to HCO3- -free Ringer-like solution, alone or together with increasing phenanthriplatin concentrations, and plotted versus time. ASP^+ (final concentration 1 or 10 μM for experiments with OCTs or MATEs, respectively) was added after the third sampling interval. Emission from the complete area of the well bottom was analyzed four times and averaged for each well. […] Background fluorescence was measured for each plate in wells with identical solutions containing no cells and subtracted from each well containing cells. Experiments were performed with cells from one passage of the same day with controls and test replicates in the same plate.
(§2) Data are presented as mean values ± SEM, with (n) referring to the number of wells. IC50 values defined as the concentration of platinum agent required to inhibit uptake of ASP^+ by 50% and EC50 values used to assess cell viability were obtained by sigmoidal concentration-response curve fitting using GraphPad Prism, Version 5.3 (GraphPad Software, San Diego, USA). […] For multiple comparisons, ANOVA with Bonferroni post-test was used. A P-value < 0.05 was considered statistically significant.

Ctr1^+/+ MEFs = assay: MTT cell viability, Ctr1+/+ MEFs; type: cell-based, mouse
Procedure: (§3) A modified 3-(4,5-dimethylthiazol-2-yl)-2,5-diphenyltetrazolium bromide (MTT) assay (Mosmann, [1983]) was used to test the chemosensitivity of cells to phenanthriplatin and, in some experiments, to cisplatin by determining the glycolysis rate via the reduction of the yellow tetrazolium salt MTT to a purple formazan dye, as previously described (Wehe et al., [2014]). Briefly, after growing for 24 h in the incubator, cells expressing or not hOCT2, hMATE1, hMATE2 or Ctr1 were treated for 10 min with platinum derivatives. Control cells were incubated with drug-free complete cell culture medium. Afterwards, the medium was carefully removed and replaced by 200 μL of fresh complete cell culture medium. After incubation for another 24 h, 10 μL of MTT solution containing 5 mg/mL of the dye were added to each well, and the cells were again incubated for 3 h. The medium was then removed and 100 μL of lysis buffer containing 10% (w/v) sodium dodecyl sulfate and 40% (v/v) dimethylformamide was added to each well. The plates were shaken for 10 min to destroy the cell structure and dissolve the blue formazan dye (Furchert et al., [2007]; Wehe et al., [2014]). Finally, the absorbance was measured at 590 nm using an automated microtiter plate reader (Infinite M200; Tecan, Männedorf, Switzerland). The percentage of viable cells in the untreated controls was compared to that for the various treatments. Experiments carried out with DAOY and UW228 cells followed a similar protocol except that these cells were incubated for 24 h with phenanthriplatin.

hOCT1 = target: T2, hOCT1 (Homo sapiens, UniProt O15245); assay: Inhibition of ASP+ uptake in HEK 293 cells expressing hOCT1; type: cell-based; conditions: HEK 293 hOCT1, 1 μM ASP+
T2 construct: expressed in transfected cells; gift of H. Koepsell
T2 sequence (O15245 1-554): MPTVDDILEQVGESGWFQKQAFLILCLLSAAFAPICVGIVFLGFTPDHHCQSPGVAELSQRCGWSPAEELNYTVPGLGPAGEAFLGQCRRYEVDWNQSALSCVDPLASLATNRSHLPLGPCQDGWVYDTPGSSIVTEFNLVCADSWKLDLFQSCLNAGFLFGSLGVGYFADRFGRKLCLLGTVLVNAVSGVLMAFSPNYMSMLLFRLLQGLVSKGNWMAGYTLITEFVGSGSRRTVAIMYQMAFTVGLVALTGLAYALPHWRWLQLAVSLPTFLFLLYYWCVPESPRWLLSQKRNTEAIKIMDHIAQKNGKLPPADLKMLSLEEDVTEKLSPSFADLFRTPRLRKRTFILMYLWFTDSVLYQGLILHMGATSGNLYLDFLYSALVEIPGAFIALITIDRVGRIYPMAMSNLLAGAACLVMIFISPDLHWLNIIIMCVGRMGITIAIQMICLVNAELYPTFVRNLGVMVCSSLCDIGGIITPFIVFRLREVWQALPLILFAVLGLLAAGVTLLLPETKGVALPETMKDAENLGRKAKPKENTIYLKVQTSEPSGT
Procedure: as §1, §2

DAOY cells = assay: MTT cell viability, DAOY medulloblastoma cells; type: cell-based
Procedure: as §3, §2

hMATE2K = target: T3, hMATE2K (Homo sapiens, UniProt Q86VL8); assay: Inhibition of ASP+ uptake in HEK 293 cells expressing hMATE2K; type: cell-based; conditions: HEK 293 hMATE2K, 10 μM ASP+
T3 construct: expressed in transfected cells
Procedure: as §1, with “Experiments were performed with cells from one passage of the same day with controls and test replicates in the same plate.” left out

T3 sequence (Q86VL8 1-566 isoform Q86VL8-3): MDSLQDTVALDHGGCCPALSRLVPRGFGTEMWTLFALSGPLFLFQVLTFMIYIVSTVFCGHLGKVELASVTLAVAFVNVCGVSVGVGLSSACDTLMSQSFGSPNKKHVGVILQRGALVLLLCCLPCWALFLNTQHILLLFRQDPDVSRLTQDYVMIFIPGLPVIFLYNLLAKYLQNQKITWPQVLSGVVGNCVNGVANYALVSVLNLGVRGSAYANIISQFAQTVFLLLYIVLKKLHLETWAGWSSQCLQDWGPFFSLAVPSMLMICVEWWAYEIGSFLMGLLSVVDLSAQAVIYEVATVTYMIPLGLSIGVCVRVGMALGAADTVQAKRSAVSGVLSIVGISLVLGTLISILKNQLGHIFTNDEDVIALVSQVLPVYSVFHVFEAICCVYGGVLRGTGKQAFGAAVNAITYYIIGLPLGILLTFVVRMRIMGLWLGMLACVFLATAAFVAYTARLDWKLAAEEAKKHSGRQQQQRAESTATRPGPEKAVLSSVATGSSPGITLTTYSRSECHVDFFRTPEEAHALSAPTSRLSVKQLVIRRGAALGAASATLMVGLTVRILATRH

IC50 (hMATE1): 101 µM
logIC50 (logEC50) ± SEM for inhibition of ASP+ uptake (hMATE1): −3.99 ± 0.21
IC50 (hOCT1): 19 µM
logIC50 (logEC50) ± SEM for inhibition of ASP+ uptake (hOCT1): −4.72 ± 0.21
EC50 (DAOY cells; 24 h incubation, MTT): 0.9 µM
IC50 (hMATE2K): 57 µM
logIC50 (logEC50) ± SEM for inhibition of ASP+ uptake (hMATE2K): −4.24 ± 0.07
SMILES: N.N.[Cl][Pt+].c1ccc2c(c1)cnc1ccccc12 [phenanthriplatin, cis-[Pt(NH3)2Cl(phenanthridine)]^+]
Cell viability (MTT) (Ctr1^+/+ MEFs; 1 mM, 10 min): toxic
Cell viability (MTT) (Ctr1^+/+ MEFs; lower concentrations (<1 mM)): did not change the cell viability
Protection from phenanthriplatin toxicity by cimetidine (cell viability, MTT) (DAOY cells; 24 h, 1 μM phenanthriplatin + 10-fold higher cimetidine): efficaciously protected against phenanthriplatin toxicity by cimetidine; also recorded: significantly decreased the toxicity of this compound in DAOY
logEC50 ± SEM for viability (DAOY cells; 24 h incubation, MTT): −6.05 ± 0.02
